The text below walks through data of paper PMC6138639, “The ZZ-type zinc finger of ZZZ3 modulates the ATAC complex-mediated histone acetylation and gene activation” (Nature Communications, 2018).

Changes are numbered by the printed parent chain.

Test [1] has as its target T1, ZZZ3 ZZ domain (a.a. 800–903) (Homo sapiens, UniProt Q8IYH5).
T1 construct: The samples containing 1.0 µM ZZZ3 ZZ (aa 800–903); GST (N, cleaved yes); made in house; host or cells: E. coli BL21 (DE3) RIL
T1 sequence (Q8IYH5 800-903): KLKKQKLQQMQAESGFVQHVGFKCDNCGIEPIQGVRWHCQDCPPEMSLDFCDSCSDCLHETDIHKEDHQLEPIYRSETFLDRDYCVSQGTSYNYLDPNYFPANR
Put plainly: Microscale thermophoresis (MST) displacement binding assay. The settings on record: displacement of 80 nM fluorescein-labeled H3 (1–12) from 5 μM ZZ by unlabeled peptide; 20 mM Tris–HCl pH 7.0, 150 mM NaCl, 3 mM DTT; H3 triplicates, H3K4ac duplicates. As to the method: The MST experiments were performed using a Monolith NT.115 instrument (NanoTemper) as described previously. All experiments were performed with the purified ZZ domain (a.a. 800-903) in a buffer containing 20 mM Tris-HCl (pH 7.0), 150 mM NaCl, and 3 mM DTT. The final concentration of the C-terminal fluorescein-labeled histone H3 peptide (1-12, KE BIOCHEM) was kept at 80 nM. Dissociation constants for the interaction between ZZ with unlabeled peptides H3 (1-12) and H3K4ac (1-12) were measured using a displacement assay in which increasing amounts of unlabeled peptides were added into a preformed ZZ:H3-FAM complex prepared by supplementing 5 μM ZZ into each sample. The measurements were performed at 50% LED and 40% MST power with 3-s laser on time and 22 s off time. For all measurements, samples were loaded into premium capillaries and 1400-1700 counts were obtained for the fluorescence intensity. The Kd and IC50 values were determined with the MO.Affinity Analysis software (NanoTemper Technologies GmbH), using two independent MST measurements. […] The Kd value is the dissociation constant of labeled H3 peptide determined in the direct binding experiment described above. […]

Test [2] deals with T2, ZZZ3 ZZ domain (aa 800–903), WT (Homo sapiens, UniProt Q8IYH5).
T2 construct: The samples containing 1.0 µM ZZZ3 ZZ (aa 800–903); GST (N, cleaved yes); made in house; host or cells: E. coli BL21 (DE3) RIL
T2 sequence (Q8IYH5 800-903): T1 sequence (Q8IYH5 800-903)
Put plainly: Tryptophan fluorescence binding of histone peptides to WT ZZZ3 ZZ domain. The conditions noted are these: for Kd: 1.0 µM ZZZ3 ZZ (aa 800–903), 25 °C, 20 mM Tris–HCl pH 7.2, 150 mM NaCl, 1 mM DTT, mean ± SD of three experiments. As to the method: Spectra were recorded at 25 °C on a Fluoromax-3 spectrofluorometer (HORIBA). The samples containing 1.0 µM ZZZ3 ZZ (aa 800–903) and progressively increasing concentrations of the histone peptide were excited at 295 nm. Experiments were performed in buffer containing 20 mM Tris–HCl (pH 7.2), 150 mM NaCl, and 1 mM DTT, with the exception of experiments shown in Supplementary Fig. 3b, which were performed in 100 mM NaCl buffer. Emission spectra were recorded over a range of wavelengths between 330 and 360 nm with a 0.5-nm step size and a 1-s integration time and averaged over three scans. The Kd values were determined using a nonlinear least-squares analysis and the equation: ΔI=ΔImaxL+P+Kd-L+P+Kd^2-4[P][L]/2[P] where [L] is the concentration of the histone peptide, [P] is the concentration of ZZZ3 ZZ domain, ΔI is the observed change of signal intensity, and ΔImax is the difference in signal intensity of the free and bound states of the ZZ domain. The Kd value was averaged over three separate experiments, with error calculated as the standard deviation between the runs.

Test [3] has as its target T3, ZZZ3 ZZ domain D824A (Homo sapiens, UniProt Q8IYH5, D824A).
T3 construct: GST (N, cleaved yes); made in house; host or cells: E. coli BL21 (DE3) RIL
T3 sequence (Q8IYH5 818-877 D824A limits assumed): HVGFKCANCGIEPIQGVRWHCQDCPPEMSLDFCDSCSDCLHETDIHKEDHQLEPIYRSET
Put plainly: 1H,15N HSQC NMR titration of ZZZ3 ZZ D824A mutant with histone peptides. The conditions noted are these: measured by NMR (1H,15N HSQC titration); 0.1 mM 15N-labeled protein; 298 K. The class given is binding. Here is the method:
(§1) In total, 0.1 mM uniformly ^15N-labeled WT or mutated ZZZ3-ZZ was used in NMR titrations. Binding was characterized by monitoring chemical shift changes in the proteins induced by histone peptides (synthesized by SynPeptide). Dissociation constant (Kd) was determined by applying PCA to the ^1H,^15N HSQC titration spectra in TREND[30]. Each binding isotherm was fitted using the following equation: pbound=∣∣PC1∣∣=L+P+Kd-L+P+Kd^2-4[P][L]/2[P] where [L] is the concentration of the histone peptide, [P] is the concentration of ZZ, pbound is the fraction of protein bound to a ligand, and PC1 is the normalized principal component, obtained by TREND, that indicates the change in the population of the bound state. The errors of the Kd value are the fitting uncertainties from nonlinear least-squares fits in Kaleidagraph.

In test [4] the target is T4, ZZZ3 ZZ domain D848A (Homo sapiens, UniProt Q8IYH5, D848A).
T4 construct: GST (N, cleaved yes); made in house; host or cells: E. coli BL21 (DE3) RIL
T4 sequence (Q8IYH5 818-877 D848A limits assumed): T3 sequence (Q8IYH5 818-877 D824A limits assumed) with A7D, D31A
Put plainly: 1H,15N HSQC NMR titration of ZZZ3 ZZ D848A mutant with histone peptides. Format: binding. The settings on record: measured by NMR (1H,15N HSQC titration); 0.1 mM 15N-labeled protein; 298 K. As to the method:
as §1

Test [5] deals with T5, ZZZ3 ZZ domain (Homo sapiens, UniProt Q8IYH5).
T5 construct: made in house; host or cells: E. coli BL21 (DE3) RIL
T5 sequence (Q8IYH5 818-877 limits assumed): T3 sequence (Q8IYH5 818-877 D824A limits assumed) with A7D
The test is described as follows: Binding of non-H3-like peptide to ZZZ3 ZZ domain (Supplementary Fig. 2i). The settings on record: N-terminal Ala1 added to a non-H3-like peptide.

In test [6] the target is T6, ATAC complex (Homo sapiens, UniProt Q8IYH5).
T6 construct: expressed in transfected cells; nuclear extract, M2-agarose, eluted with triple-FLAG peptide
The test is described as follows: In vitro HAT assay of purified ATAC complex with histone peptides or mononucleosomes. The conditions noted are these: 1 μg peptide, 0.1 mM acetyl-CoA, 37 °C, western blot. The class given is biochemical. Here is the method: Nuclear extracts were prepared from stable cells using a standard protocol. Briefly, approximately 2 mg of nuclear extract was incubated with 25 µl of M2-agarose beads (Sigma) overnight at 4 °C. The beads were washed four times with high-salt wash buffer (10 mM HEPES, pH 7.9, 25% glycerol, 1.5 mM MgCl2, 300 mM KCl, and 0.1% Triton X-100), followed by two washes with low-salt wash buffer (10 mM HEPES, pH 7.9, 25% glycerol, 1.5 mM MgCl2, 100 mM KCl, and 0.1% Triton X-100). Elution was achieved by two consecutive incubations of the beads with 0.5 mg/ml triple-FLAG peptide (Sigma) in 200 µl of low-salt wash buffer. All buffers contained phenylmethylsulfonyl fluoride and protease inhibitor cocktail (Roche).
Purified complexes were incubated for indicated times at 37 °C with peptides (1 μg) or mononucleosomes (10 μg) and 0.1 mM acetyl-CoA in HAT reaction buffer (50 mM Tris, pH 8.0, 0.1 mM EDTA, 10% glycerol, 1 mM PMSF, and 1 mM DTT) in a total volume of 50 μL. Reactions were quenched by flash-freezing in liquid nitrogen and then analyzed by SDS-PAGE and western blot. Uncropped western blots are shown in Supplementary Figure 11.

For the molecule `CC(=O)NCCCC[C@H](NC(=O)[C@@H](NC(=O)[C@H](CCCNC(=N)N)NC(=O)[C@H](C)N)[C@@H](C)O)C(=O)N[C@@H](CCC(N)=O)C(=O)N[C@H](C(=O)N[C@@H](C)C(=O)N[C@@H](CCCNC(=N)N)C(=O)N[C@@H](CCCCN)C(=O)N[C@@H](CO)C(=O)N[C@H](C(=O)NCC(=O)O)[C@@H](C)O)[C@@H](C)O` [H3K4ac], the figures for the equilibrium dissociation constant (Kd) in test [1] and in test [2] were 5.5 µM and 8.2 µM, respectively. The “Fold enhancement of ZZ association over the unmodified H3 peptide” value in test [2] (Kd 8.2 μM versus 29 μM) is given as ~ 3 fold. In addition, the “Kd, ZZZ3 ZZ domain D824A” value in test [3] is given as “No binding”.
Consider `C[C@H](N)C(=O)N[C@@H](CCCNC(=N)N)C(=O)N[C@H](C(=O)N[C@@H](CCCC[N+](C)(C)C)C(=O)N[C@@H](CCC(N)=O)C(=O)N[C@H](C(=O)N[C@@H](C)C(=O)N[C@@H](CCCNC(=N)N)C(=O)N[C@@H](CCCCN)C(=O)N[C@@H](CO)C(=O)N[C@H](C(=O)NCC(=O)O)[C@@H](C)O)[C@@H](C)O)[C@@H](C)O` [H3K4me3], for which, in test [2] (SD), binding was characterised by a dissociation constant (Kd) of 22 ± 6 µM.
Turning to `C[C@H](N)C(=O)N[C@@H](CCCNC(=N)N)C(=O)N[C@H](C(=O)N[C@@H](CCCCN)C(=O)N[C@@H](CCC(N)=O)C(=O)N[C@H](C(=O)N[C@@H](C)C(=O)N[C@@H](CCCNC(=N)N)C(=O)N[C@@H](CCCCN)C(=O)N[C@@H](CO)C(=O)N[C@H](C(=O)NCC(=O)O)[C@@H](C)O)[C@@H](C)O)[C@@H](C)O` [H3], the figures for the dissociation constant (Kd) in test [1] and in test [2] were 18 µM and 29 µM, respectively. In addition, the “Kd, ZZZ3 ZZ domain D848A” value in test [4] was “No binding”. For the same molecule, in test [3], the “Kd, ZZZ3 ZZ domain D824A” value is reported as “No binding”.
As for “AGSGSG [non-H3-like peptide with an added N-terminal Ala1]”, the “Binding to the ZZZ3 ZZ domain” value in test [5] is “insufficient to bind”.
As for “H3 (3–33): biotinylated histone H3 peptide lacking the first two amino acids, HAT substrate”, in test [6], the “HAT activity of the ATAC complex on the peptide substrate” value was “abolishes the HAT activity”.
As to “Lys4-acetylated H3 peptide: Lys4-acetylated H3 (1-22) peptide used as HAT substrate”, the “HAT activity of the ATAC complex on the peptide substrate” value in test [6] is on record as “better substrate”.
